Drawing on patent publication US11453677B2 (priority 2016, dated 2022), this text covers EC50 for 25 compounds.

Assay in all cases: cells
What all share (assay type): cell-based

Experiment [1] relates to influenza A virus minigenome (PB2, PB1, PA, NP) RNP_Alaska in 293T cells. To be noted: HEK-293T, 48 h, read-out: RNP_Alaska EC50.
Experiment [2] relates to influenza A virus minigenome (PB2, PB1, PA, NP) RNP_CAL in 293T cells. To be noted: HEK-293T, 48 h, read-out: RNP_CAL_EC50.
Experiment [3] has as its system influenza virus minigenome (PB2, PB1, PA, NP) RNP_Hubei in 293T cells. The note with it: unidentified influenza virus, HEK-293T, 48 h, read-out: RNP_Hubei EC50.

Take `O=c1cnn2c(c1O)-c1nccn1C[C@@H]2[C@H](c1ccc(F)cc1)c1cncc(F)c1` [Example 19, (S)-6-((R)-(4-fluorophenyl)(5-fluoropyridin-3-yl)methyl)-11-hydroxy-5,6-dihydro-10H-imidazo[2′,1′:3,4]pyrazino[1,2-b]pyridazin-10-one]: the EC50 is 230 nM in experiment [1], 260 nM in experiment [2] and 490 nM in experiment [3].
Taken in the same sequence, the figures for `O=c1ccn2c(c1O)-c1ncc(C(F)F)n1C[C@@H]2C(c1ccccc1)c1ccccc1` [Example 57, (S)-6-benzhydryl-3-(difluoromethyl)-11-hydroxy-5H-imidazo[1,2-a]pyrido[2,1-c]pyrazin-10(6H)-one] were 220 nM, 180 nM and 580 nM.
`O=c1cnn2c(c1O)-c1nc(Br)c(Br)n1C[C@@H]2C(c1ccc(F)cc1)c1ccc(F)cc1` [Example 48, (S)-6-(bis(4-fluorophenyl)methyl)-2,3-dibromo-11-hydroxy-5,6-dihydro-10H-imidazo[2′,1′:3,4]pyrazino[1,2-b]pyridazin-10-one]: the EC50 in experiment [1] was found to be 5000 nM; in experiment [2] it was 4300 nM; in experiment [3] it was 12000 nM.
The matching figures for `O=c1ccn2c(c1O)-c1nccn1C1(COC1)N2C1c2ccccc2CSc2ccccc21` (stereo not shown) [Example 80, 6-(6,11-dihydrodibenzo[b,e]thiepin-11-yl)-11-hydroxy-6H,10H-spiro[imidazo[1,2-d]pyrido[2,1-f][1,2,4]triazine-5,3′-oxetan]-10-one]: 170 nM, 10 nM and 27 nM.
Take `O=c1ccn2c(c1O)-c1nccn1C(C1CC1)N2C1c2ccccc2CSc2ccccc21` (stereo not shown) [Example 76, 5-cyclopropyl-6-(6,11-dihydrodibenzo[b,e]thiepin-11-yl)-11-hydroxy-5,6-dihydro-10H-imidazo[1,2-d]pyrido[2,1-f][1,2,4]triazin-10-one]: the EC50 in experiment [1] was 430 nM; in experiment [2] it was 160 nM; in experiment [3], 670 nM.
Turning to `O=c1ccn2c(c1O)-c1nccn1CN2C(c1ccccc1)c1ccccc1` [Example 6, 6-benzhydryl-11-hydroxy-5H-imidazo[1,2-d]pyrido[2,1-f][1,2,4]triazin-10(6H)-one], the EC50 in experiment [1] amounted to 150 nM; in experiment [2], 190 nM; in experiment [3], 100 nM.
The matching figures for `COCc1cnc2n1C[C@H](C(c1ccccc1)c1ccccc1)n1ccc(=O)c(O)c1-2` [Example 56, (S)-6-benzhydryl-11-hydroxy-3-(methoxymethyl)-5H-imidazo [1,2-a]pyrido[2,1-c]pyrazin-10(6H)-one]: 280 nM, 92 nM and 270 nM.
`O=C(c1cnc2n1C[C@H](C(c1ccccc1)c1ccccc1)n1ccc(=O)c(O)c1-2)N1CCCC1` [Example 72, (S)-6-benzhydryl-11-hydroxy-3-(pyrrolidine-1-carbonyl)-5,6-dihydro-10H-imidazo[1,2-a]pyrido[2,1-c]pyrazin-10-one]: the EC50 in experiment [1] was 3000 nM; in experiment [2], 1700 nM; in experiment [3] it was 5500 nM.
Taken in the same sequence, the figures for `O=c1cnn2c(c1O)-c1nccn1C[C@@H]2C(c1cccc(F)c1)c1cccc(F)c1` [Example 23, (S)-6-(bis(3-fluorophenyl)methyl)-11-hydroxy-5,6-dihydro-10H-imidazo[2′,1′:3,4]pyrazino[1,2-b]pyridazin-10-one] were 23 nM, 39 nM and 36 nM.
The matching figures for `N#Cc1cccc([C@H](c2ccc(F)cc2)[C@H]2Cn3ccnc3-c3c(O)c(=O)cnn32)c1` [Example 43, 3-((S)-(4-fluorophenyl)((S)-11-hydroxy-10-oxo-5,6-dihydro-10H-imidazo[2′,1′:3,4]pyrazino[1,2-b]pyridazin-6-yl)methyl)benzonitrile]: 140 nM, 39 nM and 170 nM.
`N#Cc1ccc([C@H](c2ccc(F)cc2)[C@H]2Cn3ccnc3-c3c(O)c(=O)cnn32)cc1` [Example 45, 4-((R)-(4-fluorophenyl)((S)-11-hydroxy-10-oxo-5,6-dihydro-10H-imidazo[2′,1′:3,4]pyrazino[1,2-b]pyridazin-6-yl)methyl)benzonitrile]: the EC50 in experiment [1] is 76 nM; in experiment [2], 42 nM; in experiment [3], 160 nM.
Take `O=c1cnn2c(c1O)-c1nccn1C[C@@H]2[C@@H](c1ccc(F)cc1)c1cccc(Cl)c1` [Example 31, (S)-6-((S)-(3-chlorophenyl)(4-fluorophenyl)methyl)-11-hydroxy-5,6-dihydro-10H-imidazo[2′,1′:3,4]pyrazino[1,2-b]pyridazin-10-one]: the EC50 was 34 nM in experiment [1], 37 nM in experiment [2] and 64 nM in experiment [3].
In the case of `O=c1cnn2c(c1O)-c1nccn1C[C@@H]2[C@@H](c1ccc(F)cc1)c1ccc(Cl)cc1` [Example 33, (S)-6-((S)-(4-chlorophenyl)(4-fluorophenyl)methyl)-11-hydroxy-5,6-dihydro-10H-imidazo[2′,1′:3,4]pyrazino[1,2-b]pyridazin-10-one], the EC50 amounted to 87 nM in experiment [1], 110 nM in experiment [2] and 270 nM in experiment [3].
Taken in the same sequence, the figures for `O=c1cnn2c(c1O)-c1nccn1C[C@@H]2C(c1cccc(Cl)c1)c1cccc(Cl)c1` [Example 15, (S)-6-(bis(3-chlorophenyl)methyl)-11-hydroxy-5H-imidazo [2′,1′:3,4] pyrazino [1,2-b]pyridazin-10(6H)-one] were 40 nM, 25 nM and 19 nM.
With `O=c1cnn2c(c1O)-c1nccn1C[C@@H]2[C@@H](c1ccc(F)cc1)c1cccc(C(F)(F)F)c1` [Example 21, (S)-6-((S)-(4-fluorophenyl)(3-(trifluoromethyl)phenyl)methyl)-11-hydroxy-5,6-dihydro-10H-imidazo[2′,1′:3,4]pyrazino[1,2-b]pyridazin-10-one], the EC50 in experiment [1] is 71 nM; in experiment [2], 52 nM; in experiment [3], 110 nM.
The matching figures for `COC(=O)OCOc1c2n(ncc1=O)[C@@H](C(c1ccc(F)cc1)c1ccc(F)cc1)Cn1ccnc1-2` [Example 88, (S)-((6-(bis(4-fluorophenyl)methyl)-10-oxo-5,6-dihydro-10H-imidazo[2′,1′:3,4]pyrazino[1,2-b]pyridazin-11-yl)oxy)methyl methyl Carbonate]: 32 nM, 42 nM and 89 nM.
The matching figures for `O=C(NC1CC1)c1cnc2n1C[C@H](C(c1ccccc1)c1ccccc1)n1ccc(=O)c(O)c1-2` [Example 70, (S)-6-benzhydryl-N-cyclopropyl-11-hydroxy-10-oxo-5,6-dihydro-10H-imidazo[1,2-a]pyrido[2,1-c]pyrazine-3-carboxamide]: 6400 nM, 1700 nM and 12300 nM.
On to `O=c1cnn2c(c1O)-c1nccn1C[C@@H]2C(c1ccc(F)cc1)c1ccc(F)cc1` [Example 22, (S)-6-(bis(4-fluorophenyl)methyl)-11-hydroxy-5,6-dihydro-10H-imidazo[2′,1′:3,4]pyrazino[1,2-b]pyridazin-10-one], for which the figures for the EC50 in experiment [1], in experiment [2] and in experiment [3] were 27 nM, 82 nM and 10 nM, respectively.
The matching figures for `O=c1ccn2c(c1O)-c1ncc(Cl)n1C[C@@H]2C(c1ccccc1)c1ccccc1` [Example 5, (S)-6-Benzhydryl-3-chloro-11-hydroxy-5,6-dihydro-10H-imidazo[1,2-a]pyrido[2,1-c]pyrazin-10-one]: 220 nM, 100 nM and 180 nM.
The matching figures for `O=c1cnn2c(c1O)-c1nccn1C[C@@H]2[C@@H](c1ccccc1)c1ccc(F)cc1` [Example 18, (S)-6-((S)-(4-fluorophenyl)(phenyl)methyl)-11-hydroxy-5,6-dihydro-10H-imidazo[2′,1′:3,4]pyrazino[1,2-b]pyridazin-10-one]: 130 nM, 130 nM and 160 nM.
Regarding `Cc1ccccc1[C@H](c1ccc(F)cc1Br)[C@H]1Cn2ccnc2-c2c(O)c(=O)cnn21` [Example 35, (S)-6-((R)-(2-bromo-4-fluorophenyl)(o-tolyl)methyl)-11-hydroxy-5,6-dihydro-10H-imidazo[2′,1′:3,4]pyrazino[1,2-b]pyridazin-10-one], the EC50 in experiment [1] stood at 98 nM; in experiment [2], 50 nM; in experiment [3], 110 nM.
The matching figures for `O=c1cnn2c(c1O)-c1nccn1CC2C(c1ccc(Cl)cc1)c1ccc(Cl)cc1` (stereo not shown) [Example 10, 6-(bis(4-chlorophenyl)methyl)-11-hydroxy-5H-imidazo[2′,1′:3,4]pyrazino[1,2-b]pyridazin-10(6H)-one]: 290 nM, 320 nM and 820 nM.
The matching figures for `Cc1cccc([C@H](c2ccc(F)cc2)[C@H]2Cn3ccnc3-c3c(O)c(=O)cnn32)c1` [Example 38, (S)-6-((S)-(4-fluorophenyl)(m-tolyl)methyl)-11-hydroxy-5,6-dihydro-10H-imidazo[2′,1′:3,4]pyrazino[1,2-b]pyridazin-10-one]: 43 nM, 49 nM and 97 nM.
Regarding `O=c1ccn2c(c1O)-c1ncsc1CN2C(c1ccccc1)c1ccccc1` [Example 81, 5-benzhydryl-10-hydroxy-4,5-dihydro-9H-pyrido[1,2-b]thiazolo[4,5-d]pyridazin-9-one], the EC50 in experiment [1] is 2200 nM; in experiment [2], 7000 nM.
Take `O=c1ccn2c(c1O)-c1nccn1C(C1CC1)N2C(c1ccccc1)c1ccccc1` (stereo not shown) [Example 73, 6-benzhydryl-5-cyclopropyl-11-hydroxy-5,6-dihydro-10H-imidazo[1,2-d]pyrido[2,1-f][1,2,4]triazin-10-one]: the EC50 in experiment [1] worked out at 390 nM; in experiment [2], 170 nM.
